Data taken from patent US8513232B2, “Substituted spirocyclic piperidine derivatives as histamine-3 (H3) receptor ligands” (Cephalon, Inc., priority 2008, dated 2013).
Where two headings read alike, the source gives them in different places.

How the values were obtained:
[1] = target: T1, rat histamine H3 receptor (Rattus norvegicus, UniProt Q9QYN8); assay: Rat H3 radioligand binding ([3H]-N-alpha-methylhistamine, SPA)
T1 construct: encoding the entire 445-amino-acid rat histamine H3 receptor; expressed in transfected cells; membrane preparation
T1 sequence (Q9QYN8 whole entry): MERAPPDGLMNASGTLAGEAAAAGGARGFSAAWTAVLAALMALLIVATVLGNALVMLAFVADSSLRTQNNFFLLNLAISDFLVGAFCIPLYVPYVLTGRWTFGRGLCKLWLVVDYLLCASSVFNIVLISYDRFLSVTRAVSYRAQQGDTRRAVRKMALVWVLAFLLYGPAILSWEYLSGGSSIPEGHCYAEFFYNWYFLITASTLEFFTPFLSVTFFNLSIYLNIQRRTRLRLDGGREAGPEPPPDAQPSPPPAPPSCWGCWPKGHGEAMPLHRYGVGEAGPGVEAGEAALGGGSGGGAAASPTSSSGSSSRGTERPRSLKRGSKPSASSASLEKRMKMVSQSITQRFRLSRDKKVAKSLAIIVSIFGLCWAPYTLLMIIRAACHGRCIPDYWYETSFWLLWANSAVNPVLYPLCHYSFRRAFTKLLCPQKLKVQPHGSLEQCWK
Method in brief: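 Membranes from CHO-A3 cells stably expressing full-length rat H3 receptor (10 μg protein/well) incubated 4 h at room temperature, protected from light, with ~1 nM [3H]-N-alpha-methylhistamine and compound (0.01 nM-30 μM) in 50 mM Tris HCl pH 7.4, 5 mM MgCl2, 0.1% BSA. Binding read by SPA; 10 μM clobenpropit defined non-specific binding.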

human H3 receptor = target: T2, human H3 receptor (Homo sapiens, UniProt Q9Y5N1); assay: Human H3 radioligand binding ([3H]-N-alpha-methylhistamine, SPA)
T2 construct: expressed in transfected cells
T2 sequence (Q9Y5N1 whole entry): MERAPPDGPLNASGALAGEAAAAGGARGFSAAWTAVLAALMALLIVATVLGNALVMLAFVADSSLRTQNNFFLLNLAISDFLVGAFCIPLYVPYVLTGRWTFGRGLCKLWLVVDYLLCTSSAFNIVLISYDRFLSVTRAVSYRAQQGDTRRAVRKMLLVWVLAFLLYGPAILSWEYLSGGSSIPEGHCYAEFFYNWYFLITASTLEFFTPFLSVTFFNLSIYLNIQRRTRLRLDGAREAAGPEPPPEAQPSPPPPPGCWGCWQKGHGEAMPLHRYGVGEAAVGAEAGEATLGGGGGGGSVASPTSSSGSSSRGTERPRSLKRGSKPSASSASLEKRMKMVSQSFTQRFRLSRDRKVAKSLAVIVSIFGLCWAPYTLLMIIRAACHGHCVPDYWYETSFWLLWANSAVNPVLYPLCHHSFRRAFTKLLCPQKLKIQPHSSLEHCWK
Method in brief: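 SPA competition binding on membranes from CHO cells stably expressing human H3 receptor (10 μg protein/well) with ~1 nM [3H]-N-alpha-methylhistamine and compound at 0.01 nM-30 μM. Incubation 4 h at room temperature in 50 mM Tris-HCl pH 7.4, 5 mM MgCl2, 0.1% BSA; non-specific binding defined with 10 μM clobenpropit.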

[2] = Rat H3 binding, Table B, Examples 136-362, read-out: rat H3 binding Ki
[3] = Human H3 binding, Table B, Examples 136-362, read-out: hum H3 binding Ki

| Compound | Ki [1, 2] | Ki (human H3 receptor; [3]) | melting point | Ki [1] | Ki (human H3 receptor) |
| --- | --- | --- | --- | --- | --- |
| O=C(NCCO)c1ccc(-c2ccc3c(c2)COC2(CCN(C4CCC4)CC2)O3)cc1F [Example 163] | < 0.2 µM | < 0.2 µM | 166 to 168 °C |  |  |
| CNC(=O)c1cnc(-c2ccc3c(c2)COC2(CCN(C4CCC4)CC2)O3)s1 [Example 164] | < 0.2 µM | < 0.2 µM | 200 to 203 °C |  |  |
| O=C(Nc1ccc2c(c1)COC1(CCN(C3CCC3)CC1)O2)N1CCOCC1 [Example 165] | 0.2 to 1 µM | < 0.2 µM | 238 to 240 °C |  |  |
| CN(C)C(=O)c1ccccc1Nc1ccc2c(c1)COC1(CCN(C3CCC3)CC1)O2 [Example 166] | < 0.2 µM | < 0.2 µM | 50 to 53 °C |  |  |
| Cc1n[nH]c(C)c1-c1ccc2c(c1)CCC1(CCN(C3CCC3)CC1)O2 [Example 167] | < 0.2 µM | < 0.2 µM | 86 to 88 °C |  |  |
| O=c1ccc(-c2ccc3c(c2)COC2(CCN(C4CCC4)CC2)O3)c[nH]1 [Example 168] | < 0.2 µM | < 0.2 µM | 145 to 147 °C |  |  |
| CN(C)C(=O)c1ccc(Nc2ccc3c(c2)COC2(CCN(C4CCC4)CC2)O3)cc1 [Example 169] | < 0.2 µM | < 0.2 µM | 66 to 74 °C |  |  |
| c1ccc(Nc2ccc3c(c2)OC2(CCN(C4CCC4)CC2)O3)cc1 [Example 170] | < 0.2 µM | < 0.2 µM | 238 to 240 °C |  |  |
| Cc1nn(C)c(C)c1-c1ccc2c(c1)CCC1(CCN(C3CCC3)CC1)O2 [Example 171] | < 0.2 µM | < 0.2 µM | 47 to 49 °C |  |  |
| O=C(c1ccc(Nc2ccc3c(c2)COC2(CCN(C4CCC4)CC2)O3)cc1)N1CCOCC1 [Example 172] | < 0.2 µM | < 0.2 µM | 79 to 84 °C |  |  |
| O=C(c1ccc(-c2ccc3c(c2)COC2(CCN(C4CCC4)CC2)O3)cn1)N1CC[C@@H](O)C1 [Example 173] | < 0.2 µM | < 0.2 µM | 100 to 101 °C |  |  |
| CNC(=O)N1CCN(c2ccc3c(c2)COC2(CCN(C4CCC4)CC2)O3)CC1 [Example 174] | < 0.2 µM | < 0.2 µM | 59 to 62 °C |  |  |
| CNC(=O)c1ccc(-c2ccc3c(c2)CCOC2(CCN(C4CCC4)CC2)O3)cn1 [Example 175] | > 1 µM | 0.2 to 1 µM | 141 to 142.2 °C |  |  |
| CNC(=O)c1ccc(-c2ccc3c(c2)COC2(CCN(C4CCC4)CC2)O3)s1 [Example 176] | < 0.2 µM | < 0.2 µM | 215 to 219 °C |  |  |
| CNC(=O)c1cccc(-c2ccc3c(c2)CCOC2(CCN(C4CCC4)CC2)O3)c1 [Example 177] | > 1 µM | 0.2 to 1 µM | 100.2 to 102.5 °C |  |  |
| O=C1N(c2ccncc2)CCN1c1ccc2c(c1)COC1(CCN(C3CCC3)CC1)O2 [Example 178] | < 0.2 µM | < 0.2 µM | 185 to 189 °C |  |  |
| CNC(=O)c1ccc(-c2ccc3c(c2)CCOC2(CCN(C4CCC4)CC2)O3)cc1 [Example 180] | > 1 µM | 0.2 to 1 µM | 155.6 to 157.3 °C |  |  |
| CNC(=O)NCc1ccc(-c2ccc3c(c2)COC2(CCN(C4CCC4)CC2)O3)cc1 [Example 181] | < 0.2 µM | < 0.2 µM | 205 to 206.5 °C |  |  |
| O=C(c1ccc(-c2ccc3c(c2)CCC2(CCN(C4CCC4)CC2)O3)cc1)N1CC[C@H](O)C1 [Example 182] | < 0.2 µM | < 0.2 µM | 193 to 195 °C |  |  |
| CCCn1cc(-c2ccc3c(c2)CCC2(CCN(C4CCC4)CC2)O3)cn1 [Example 183] | < 0.2 µM | < 0.2 µM | 97 to 99 °C |  |  |
| O=C(Nc1ccc(Cl)cc1)Nc1ccc2c(c1)COC1(CCN(C3CCC3)CC1)O2 [Example 184] | 0.2 to 1 µM | < 0.2 µM | 201 to 203 °C |  |  |

| Compound | Ki [1, 2] | Ki (human H3 receptor; [3]) | melting point | Ki [1] | Ki (human H3 receptor) |
| --- | --- | --- | --- | --- | --- |
| O=C(Nc1cccc(Cl)c1)Nc1ccc2c(c1)COC1(CCN(C3CCC3)CC1)O2 [Example 186] | < 0.2 µM | < 0.2 µM | 216 to 217 °C |  |  |
| CC(C)Cn1cc(-c2ccc3c(c2)CCC2(CCN(C4CCC4)CC2)O3)cn1 [Example 187] | < 0.2 µM | < 0.2 µM | 106 to 108 °C |  |  |
| O=C(Nc1ccc2c(c1)CCC1(CCN(C3CCC3)CC1)O2)c1ccncc1 [Example 188] | < 0.2 µM | < 0.2 µM | 65 to 67 °C |  |  |
| c1ccc(COc2ccc3c(c2)CCC2(CCN(C4CCC4)CC2)O3)cc1 [Example 189] | < 0.2 µM | < 0.2 µM | 102 to 103 °C |  |  |
| OC1CC2(CCN(C3CCC3)CC2)Oc2ccc(OCc3ccccc3)cc21 (stereo not drawn) [Example 190] | 0.2 to 1 µM | < 0.2 µM | 69 to 71 °C |  |  |
| CO[C@H]1CCN(C(=O)c2ccc(-c3ccc4c(c3)COC3(CCN(C5CCC5)CC3)O4)cc2)C1 [Example 191] | < 0.2 µM | < 0.2 µM | 120 to 121 °C |  |  |
| O=C(c1ccc(-c2ccc3c(c2)COC2(CCN(C4CCC4)CC2)O3)cc1F)N1CC[C@H](O)C1 [Example 192] | < 0.2 µM | < 0.2 µM | 99.5 to 100.5 °C |  |  |
| COCCNC(=O)c1ccc(-c2ccc3c(c2)CCC2(CCN(C4CCC4)CC2)O3)cc1 [Example 193] | < 0.2 µM | < 0.2 µM | 158 to 160 °C |  |  |
| O=C(c1ccc(-c2ccc3c(c2)CCC2(CCN(C4CCC4)CC2)O3)cc1F)N1CC[C@H](O)C1 [Example 194] | < 0.2 µM | < 0.2 µM | 78 to 80 °C |  |  |
| COCCNC(=O)c1ccc(-c2ccc3c(c2)COC2(CCN(C4CCC4)CC2)O3)cn1 [Example 195] | < 0.2 µM | < 0.2 µM | 113 to 114 °C |  |  |
| Cc1cc(C(=O)Nc2ccc3c(c2)COC2(CCN(C4CCC4)CC2)O3)cc(Cl)n1 [Example 196] | < 0.2 µM | < 0.2 µM | 179 to 180 °C |  |  |
| O=C1CCN(C(=O)c2ccc(-c3ccc4c(c3)CCC3(CCN(C5CCC5)CC3)O4)cc2)CC1 [Example 197] |  |  | 82.9 to 84.3 °C | < 0.2 µM | < 0.2 µM |
| OCCn1cc(-c2ccc3c(c2)CCC2(CCN(C4CCC4)CC2)O3)cn1 [Example 198] | < 0.2 µM | < 0.2 µM | 101 to 103 °C |  |  |
| Cc1nn(C)c(C)c1-c1ccc2c(c1)COC1(CCN(C3CCC3)CC1)O2 [Example 199] | < 0.2 µM | < 0.2 µM | 140 to 143 °C |  |  |
| Cc1n[nH]c(C)c1-c1ccc2c(c1)COC1(CCN(C3CCC3)CC1)O2 [Example 200] | < 0.2 µM | < 0.2 µM | 110 to 112 °C |  |  |
| O=C(c1ccc(-c2ccc3c(c2)COC2(CCN(C4CCC4)CC2)O3)cc1)N1CCC[C@@H](O)C1 [Example 201] | < 0.2 µM | < 0.2 µM | 85 to 87 °C |  |  |
| COCCNC(=O)c1ccc(-c2ccc3c(c2)COC2(CCN(C4CCC4)CC2)O3)cc1F [Example 202] | < 0.2 µM | < 0.2 µM | 107 to 108.5 °C |  |  |
| O=C(Nc1ccc2c(c1)COC1(CCN(C3CCC3)CC1)O2)c1ccnnc1 [Example 203] | < 0.2 µM | < 0.2 µM | 206 to 207 °C |  |  |
| CNC(=O)c1ccc(-c2ccc3c(c2)COC2(CCN(C4CCC4)CC2)O3)cc1C [Example 205] | < 0.2 µM | < 0.2 µM | 174 to 176.2 °C |  |  |
| O=C(c1ccc(-c2ccc3c(c2)CCC2(CCN(C4CCC4)CC2)O3)cc1)N1CCC(O)CC1 [Example 206] | < 0.2 µM | < 0.2 µM | 90.4 to 92.6 °C |  |  |
